According to US5776903A, “Peptide derivatives usable as zinc endopeptidase 24-15 inhibitors” (Commissariat A l'Energie Atomique, priority 1995, dated 1998):

Key:
endopeptidase 24-16 = endopeptidase 24-16 (Homo sapiens, UniProt Q9BYT8); test: Inhibition of neurotensin degradation by purified endopeptidase 24-16 (HPLC), inhibition constant Ki; assay type: biochemical; conditions: neurotensin 20 μmole/l, 1 hour at 30° C., tris-HCl pH 7.5
Description: This example studies the inhibiting effect of the peptides of the invention with respect to endopeptidase 24-16.
To this end, incubation takes place for 1 hour at 30° C. of 2 nmole (20 μmole/l) of neurotensin, which is a known endopeptidase 24-16 substrate with 8 μg of endopeptidase 24-16 purified in a final volume of 100 μl of tris-HCl buffer, 50 mM, pH 7.5, in the absence of peptide (control) or in the presence of the peptide tested at concentrations from 10^-11 to 10^-7 mole/l. After 1 hour of incubation analysis takes place of the solutions by HPLC and the inhibition constant Ki of the tested peptide is determined.

endopeptidase 24-15 = endopeptidase 24-15 (Rattus norvegicus, UniProt P24155); test: Inhibition of neurotensin degradation by purified endopeptidase 24-15 (HPLC), inhibition constant Ki; conditions: for SELECTIVITY (ratio Ki24-16 /Ki24-15): selectivity relative to endopeptidase 24-16; for Ki expected for one of the diastereoisomers of the mixture: extrapolated from Ki of the mixture of 4 diastereoisomers; for affinity difference / power factor relative to Cpp-Ala-Pro-Phe-pAb: for the expected single diastereoisomer versus known inhibitor (Ki 7 nM)
Description: Incubation takes place for 1 hour at 37° C. of 2 nmole (20 μmole/l) of neurotensin, which is a known endopeptidase 24-15 substrate, with 7 μg of purified endopeptidase 24-15 in a final volume of 100 μl of tris-HCl buffer, 50 nM, pH 7.5, in the absence of an inhibitor (control) or in the presence of the peptide tested at concentrations from 10^-11 to 10^-7 mole/l. After 1 hour incubation analysis takes place of the solutions by HPLC. On the basis of this analysis the inhibition constant Ki of the tested peptide is determined.

[1] = biological target: endopeptidase 24-15 of the rat (Rattus norvegicus, UniProt P24155); conditions: as described by Dando et al; read-out: inhibition constant Ki with respect to endopeptidase 24-15 of the rat; cited from earlier work
Sequence of endopeptidase 24-15 of the rat (P24155 whole entry): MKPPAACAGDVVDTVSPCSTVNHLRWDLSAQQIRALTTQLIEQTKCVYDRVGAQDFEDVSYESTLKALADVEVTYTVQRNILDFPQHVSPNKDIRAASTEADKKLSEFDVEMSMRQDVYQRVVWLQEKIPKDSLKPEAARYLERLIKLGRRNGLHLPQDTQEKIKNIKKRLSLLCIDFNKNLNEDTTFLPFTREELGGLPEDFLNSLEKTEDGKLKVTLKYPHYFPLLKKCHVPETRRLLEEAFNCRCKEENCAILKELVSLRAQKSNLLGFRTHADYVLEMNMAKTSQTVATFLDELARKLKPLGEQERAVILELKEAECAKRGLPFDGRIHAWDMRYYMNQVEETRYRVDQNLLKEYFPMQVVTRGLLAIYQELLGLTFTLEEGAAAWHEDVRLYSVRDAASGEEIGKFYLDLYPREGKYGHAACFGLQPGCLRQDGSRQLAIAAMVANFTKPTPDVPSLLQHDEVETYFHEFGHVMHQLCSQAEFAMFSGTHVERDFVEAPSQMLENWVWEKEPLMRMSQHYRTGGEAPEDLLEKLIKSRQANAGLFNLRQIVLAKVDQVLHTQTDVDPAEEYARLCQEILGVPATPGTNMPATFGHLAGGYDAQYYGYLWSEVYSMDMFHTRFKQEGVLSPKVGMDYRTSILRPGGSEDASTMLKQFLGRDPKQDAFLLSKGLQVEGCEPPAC

Sequence of endopeptidase 24-15 (P24155 whole entry): as above
Sequence of endopeptidase 24-16 (Q9BYT8 38-704): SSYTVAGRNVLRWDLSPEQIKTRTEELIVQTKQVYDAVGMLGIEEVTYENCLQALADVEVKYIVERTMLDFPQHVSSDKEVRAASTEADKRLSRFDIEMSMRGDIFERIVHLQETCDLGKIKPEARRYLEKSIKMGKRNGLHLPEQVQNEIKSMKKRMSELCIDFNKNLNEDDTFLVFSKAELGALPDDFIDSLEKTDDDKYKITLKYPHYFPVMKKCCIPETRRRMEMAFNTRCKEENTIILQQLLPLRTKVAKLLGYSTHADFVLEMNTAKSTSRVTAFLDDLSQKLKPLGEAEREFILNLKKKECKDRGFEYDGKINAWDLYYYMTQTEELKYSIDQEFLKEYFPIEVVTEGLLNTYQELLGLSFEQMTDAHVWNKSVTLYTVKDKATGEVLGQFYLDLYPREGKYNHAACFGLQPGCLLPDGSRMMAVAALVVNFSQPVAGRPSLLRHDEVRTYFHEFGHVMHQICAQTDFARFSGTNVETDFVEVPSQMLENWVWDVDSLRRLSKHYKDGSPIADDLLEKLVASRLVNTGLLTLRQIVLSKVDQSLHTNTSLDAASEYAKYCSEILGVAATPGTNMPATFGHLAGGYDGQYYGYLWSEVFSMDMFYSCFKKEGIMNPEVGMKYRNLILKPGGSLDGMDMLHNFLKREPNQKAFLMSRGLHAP

With `CCCC[C@H](NC(=O)[C@H](CCCCN)NC(=O)C(C)CP(=O)(O)C(Cc1ccccc1)NC(=O)OCc1ccccc1)C(=O)O` (mixture of isomers) [compound 23, Z--Phe .PSI. (PO2 CH2)Ala--Lys--Nle] the Ki (endopeptidase 24-16) was 162 nM, the Ki (endopeptidase 24-15) was 0.63 nM and the “SELECTIVITY (ratio Ki24-16 /Ki24-15)” value (endopeptidase 24-15) was 257.
With `CC(CP(=O)(O)C(Cc1ccccc1)NC(=O)OCc1ccccc1)C(=O)N[C@@H](CCCCN)C(=O)N[C@@H](C)C(=O)O` (mixture of isomers) [compound 24, Z--Phe .PSI. (PO2 CH2)Ala--Lys--Ala] the Ki (endopeptidase 24-16) was 436 nM, the Ki (endopeptidase 24-15) was 0.83 nM and the “SELECTIVITY (ratio Ki24-16 /Ki24-15)” value (endopeptidase 24-15) was 525.
For `CC(CP(=O)(O)C(Cc1ccccc1)NC(=O)OCc1ccccc1)C(=O)N[C@@H](CCCCN)C(=O)N[C@@H](Cc1ccccc1)C(=O)O` (mixture of isomers) [compound 25, Z--Phe .PSI. (PO2 CH2)Ala--Lys--Phe], the Ki (endopeptidase 24-16) was 1650 nM, the Ki (endopeptidase 24-15) was 1 nM and the “SELECTIVITY (ratio Ki24-16 /Ki24-15)” value (endopeptidase 24-15) was 1652.
For `CC(C)C[C@H](NC(=O)[C@H](CCCCN)NC(=O)C(C)CP(=O)(O)C(Cc1ccccc1)NC(=O)OCc1ccccc1)C(=O)O` (mixture of isomers) [compound 26, Z--Phe .PSI. (PO2 CH2)Ala--Lys--Leu], the Ki (endopeptidase 24-16) was 893 nM, the Ki (endopeptidase 24-15) was 1.82 nM and the “SELECTIVITY (ratio Ki24-16 /Ki24-15)” value (endopeptidase 24-15) was 491.
With `CC[C@H](C)[C@H](NC(=O)[C@H](CCCCN)NC(=O)C(C)CP(=O)(O)C(Cc1ccccc1)NC(=O)OCc1ccccc1)C(=O)O` (mixture of isomers) [compound 27, Z--Phe .PSI. (PO2 CH2)Ala--Lys--Ile] the Ki (endopeptidase 24-16) was 1260 nM, the Ki (endopeptidase 24-15) was 1.94 nM and the “SELECTIVITY (ratio Ki24-16 /Ki24-15)” value (endopeptidase 24-15) was 652.
With `CSCC[C@H](NC(=O)[C@H](CCCNC(=N)N)NC(=O)C(C)CP(=O)(O)C(Cc1ccccc1)NC(=O)OCc1ccccc1)C(=O)O` (mixture of isomers) [compound 42, Z--Phe .PSI. (PO2 CH2)Ala--Arg--Met] the Ki (endopeptidase 24-16) was 88 nM, the Ki (endopeptidase 24-15) was 0.067 nM and the “Ki expected for one of the diastereoisomers of the mixture” value (endopeptidase 24-15) was “approximately 15 pM”. The “affinity difference / power factor relative to Cpp-Ala-Pro-Phe-pAb” value (endopeptidase 24-15) was 440 and the “SELECTIVITY (ratio Ki24-16 /Ki24-15)” value (endopeptidase 24-15) was 1312.
With `CC(CP(=O)(O)C(Cc1ccccc1)NC(=O)OCc1ccccc1)C(=O)N[C@@H](CCCNC(=N)N)C(=O)N[C@@H](Cc1ccccc1)C(=O)O` (mixture of isomers) [compound 43, Z--Phe .PSI. (PO2 CH2)Ala--Arg--Phe] the Ki (endopeptidase 24-16) was 527 nM, the Ki (endopeptidase 24-15) was 0.158 nM and the “Ki expected for one of the diastereoisomers of the mixture” value (endopeptidase 24-15) was “approximately 40 pM”. The “affinity difference / power factor relative to Cpp-Ala-Pro-Phe-pAb” value (endopeptidase 24-15) was “approximately 175” and the “SELECTIVITY (ratio Ki24-16 /Ki24-15)” value (endopeptidase 24-15) was 3335.
In the case of `CC(C)CC(CP(=O)(O)C(Cc1ccccc1)NC(=O)OCc1ccccc1)C(=O)N[C@@H](CCCNC(=N)N)C(=O)N[C@@H](Cc1ccccc1)C(=O)O` (mixture of isomers) [compound 44, Z--Phe .PSI. (PO2 CH2)Leu--Arg--Phe], the Ki (endopeptidase 24-16) is reported as 2290 nM, the Ki (endopeptidase 24-15) is reported as 14 nM and the “SELECTIVITY (ratio Ki24-16 /Ki24-15)” value (endopeptidase 24-15) is reported as 164.
In the case of Cpp-Ala-Pro-Phe-pAb, the Ki [1] is given as 7 nM.
